Experimental data taken from paper PMC11180795 (Frontiers in Pharmacology, 2024).

Columns and labels:
IFN-γ = experiment: Th1/Th2 cytokine measurement (Cytometric Bead Array) in LPS-stimulated Raw 264.7 cells, IFN-γ; format: cell-based, Murine; settings: compound at 20 µM; for effect on IFN-γ production (in words): vs stimulated and untreated control
Method: Raw 264.7 cells were seeded at 2 × 10^5 cells/mL in a 48-well microplate and allowed to adhere for 24 h, then treated with LPS 0.1 μg/mL and with compounds (1), (5) and (6) at 20 µM. Untreated cells and indomethacin (10 µM) were used as controls. After 24 h of incubation, the supernatant was collected and the amount of pro-inflammatory Th1 cytokines (IFN-γ, TNF-α, and IL-2) and anti-inflammatory Th2 cytokines (IL-4, IL-6, and IL-10) released measured. The experiment was performed according to the manufacturer’s instructions using BD™ Cytometric Bead Array (CBA) […] Th1/Th2 Cytokine Kit (BD-Biosciences), and data were acquired on a BD LSR Fortessa™ cell analyzer flow cytometer.

[1] = target: T1, 15-lipoxygenase from Glycine max (Glycine max, UniProt P08170); experiment: Soybean 15-LOX inhibition assay (ferrous oxidation-xylenol orange); format: biochemical; settings: linoleic acid 140 µM, pH 7.4, 25°C
T1 construct: purchased Sigma (Germany)
T1 sequence (P08170 1-839): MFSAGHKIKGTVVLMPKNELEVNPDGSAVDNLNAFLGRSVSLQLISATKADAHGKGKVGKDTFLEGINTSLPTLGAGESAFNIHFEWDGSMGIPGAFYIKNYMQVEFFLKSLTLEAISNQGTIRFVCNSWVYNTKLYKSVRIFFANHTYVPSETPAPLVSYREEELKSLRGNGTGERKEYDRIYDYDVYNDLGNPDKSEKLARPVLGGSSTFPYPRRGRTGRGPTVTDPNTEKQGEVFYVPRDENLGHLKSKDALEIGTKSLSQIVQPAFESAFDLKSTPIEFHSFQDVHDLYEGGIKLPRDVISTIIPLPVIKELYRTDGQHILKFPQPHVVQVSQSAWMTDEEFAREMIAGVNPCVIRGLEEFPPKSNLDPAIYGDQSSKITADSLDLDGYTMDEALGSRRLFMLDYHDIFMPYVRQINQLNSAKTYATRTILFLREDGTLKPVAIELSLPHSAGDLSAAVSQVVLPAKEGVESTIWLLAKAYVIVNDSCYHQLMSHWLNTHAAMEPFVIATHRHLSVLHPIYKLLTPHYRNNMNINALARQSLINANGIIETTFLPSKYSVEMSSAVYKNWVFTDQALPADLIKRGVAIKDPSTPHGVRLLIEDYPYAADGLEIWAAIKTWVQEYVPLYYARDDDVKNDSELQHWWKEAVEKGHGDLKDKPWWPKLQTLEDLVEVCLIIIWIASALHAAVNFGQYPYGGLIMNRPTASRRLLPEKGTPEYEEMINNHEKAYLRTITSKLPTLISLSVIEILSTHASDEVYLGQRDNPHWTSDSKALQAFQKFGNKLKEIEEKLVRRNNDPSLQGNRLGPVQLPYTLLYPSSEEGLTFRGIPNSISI
Method: The assay was performed according to a previously described procedure ([Pinto et al., 2007]) with slight modifications. The assay is based on measuring the formation of the complex Fe3^+/xylenol orange in a spectrophotometer at 560 nm. 15-LOX from G. max was incubated with compounds or standard inhibitors at 25°C for 5 min. The concentration range of the samples were from 250 μM to 1.95 µM. Then linoleic acid (final concentration, 140 µM) in Tris-HCl buffer (50 mM, pH 7.4) was added and the mixture was incubated at 25°C for 20 min in the dark. The assay was terminated by the addition of 100 µL of FOX reagent consisting of sulfuric acid (30 mM), xylenol orange (100 µM), iron (II) sulfate (100 µM) in methanol/water (9:1). For the control, only LOX solution and buffer were pipetted into the wells. Blanks (background) contained the enzyme LOX during incubation, but the substrate (linoleic acid) was added after the FOX reagent. […] The LOX inhibitory activity was evaluated by calculating the percentage of the inhibition of hydroperoxide production from the changes in absorbance values at 560 nm after 30 min at 25°C. % inhibition = [(Acontrol – Ablank) – (Asample – Ablank)/(Acontrol – Ablank)] x100. Where Acontrol is the absorbance of control well, Ablank is the absorbance of blank well and Asample is the absorbance of sample well.

COX-2 = target: T2, COX-2 (Mus musculus, UniProt Q05769); experiment: Fluorometric COX activity assay in lysate of LPS-treated Raw 264.7 cells, COX-2; format: cell-based, Murine; settings: compound at 20 µM, LPS 0.1 μg/mL, 24 h; untreated control 99.85 µU/mg
T2 construct: The cell lysate was centrifuged at 12000 x g for 3 min and the supernatant was collected for COX activity assay; endogenous in cells
T2 sequence (Q05769 18-604): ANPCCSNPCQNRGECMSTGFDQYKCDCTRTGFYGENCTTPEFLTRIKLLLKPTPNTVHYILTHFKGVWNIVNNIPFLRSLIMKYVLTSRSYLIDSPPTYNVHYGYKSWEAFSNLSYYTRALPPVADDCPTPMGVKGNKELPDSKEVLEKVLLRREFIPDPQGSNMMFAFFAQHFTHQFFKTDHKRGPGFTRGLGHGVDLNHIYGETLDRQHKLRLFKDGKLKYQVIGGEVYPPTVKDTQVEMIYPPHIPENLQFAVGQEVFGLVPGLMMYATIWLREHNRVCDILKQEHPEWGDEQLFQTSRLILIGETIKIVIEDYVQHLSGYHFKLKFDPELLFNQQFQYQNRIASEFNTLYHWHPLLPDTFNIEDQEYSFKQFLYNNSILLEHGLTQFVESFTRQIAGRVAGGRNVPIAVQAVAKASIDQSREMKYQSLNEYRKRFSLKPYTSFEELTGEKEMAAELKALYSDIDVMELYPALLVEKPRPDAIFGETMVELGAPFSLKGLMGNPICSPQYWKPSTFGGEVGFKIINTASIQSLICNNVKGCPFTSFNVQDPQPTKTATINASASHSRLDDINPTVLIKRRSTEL
Method: The fluorometric cyclooxygenase activity assay kit (Biovision) was used to evaluate the activity of COX-1 and COX-2 enzymes. Raw 264.7 cells were seeded at 2 × 10^5 cells/mL in a 48-well microplate, and allowed to adhere for 24 h, then treated with LPS 0.1 μg/mL and compounds (1), (5) and (6) at 20 µM against Raw 264.7 cells. After 24 h the cyclooxygenase enzyme (COX-1 and COX-2) activity assay was performed. Cells were detached with TNE buffer (Tris 40 mM, NaCl 150 mM, EDTA 1 mM) and washed with PBS (1x), then re-suspended in 1 mL PBS (1x), transferred into 1.5 mL tube, and centrifuged at 500 x g for 3 min. The pellet was then re-suspended in 0.5 mL of lysis buffer with a protease inhibitor cocktail, vortexed, and incubated at 4°C for 5 min. The cell lysate was centrifuged at 12000 x g for 3 min and the supernatant was collected for COX activity assay. The COX activity was assessed using the fluorometric cyclooxygenase activity assay kit (Biovision) following the manufacturer’s instructions. The assay includes COX-1 and COX-2 specific inhibitors to differentiate the activity of COX-1 and COX-2 as well as other peroxidases. Indomethacin (10 µM) was used as a standard drug and appropriate controls were also included.

| SMILES | effect on IFN-γ production (in words) (IFN-γ) | IC50 [1] | COX-2 activity (COX-2) | IFN-γ level (IFN-γ; LPS 0.1 μg/mL, 24 h, stimulated untreated control 0.84 pg/mL) |
| --- | --- | --- | --- | --- |
| CC(C)=CCC/C(C)=C/C[C@]12C[C@@H](CC=C(C)C)C(C)(C)[C@](CC=C(C)C)(C(=O)C(C(=O)c3ccc(O)c(O)c3)=C1O)C2=O [Compound 6, Guttiferone M] | moderate decrease | 53 µM | 43.84 µU/mg | – |
| CC(C)=CCC/C(C)=C/C[C@]12C[C@@H](CC=C(C)C)C(C)(C)[C@](C/C=C(\C)CCC=C(C)C)(C(=O)C(C(=O)c3ccc(O)c(O)c3)=C1O)C2=O [Compound 5, Guttiferone O] | significantly reduces | 45 µM | 88.10 µU/mg | – |
| CC(C)=CCc1c2c(c3oc4c(O)cccc4c(=O)c3c1O)C=CC(C)(C)O2 [Compound 1, Ananixanthone] | – | 63.9 µM | 59.33 µU/mg | 0.43 pg/mL |
